# Like-named read-outs stand apart in the source and are kept apart here.
# Columns and labels:
# [1] = RealTime-Glo MT cell viability assay; type: cell-based, mouse; settings: mouse, serum-starved C2C12 cells, 24 h, serum-starved C2C12, read-out: Cell viability, percent of luminescence in control untreated cells
# Method: (§1) To first determine how these novel compounds effect the health of C2C12 cells and to establish the range of subtoxic concentrations for future studies, cell viability assays were carried out. Serum-starved C2C12 cells were exposed to increasing concentrations (0.01–1000 µM) of SY-LB-35 and SY-LB-57 for 24 h. Exposure to Triton X-100 (125 µM) is toxic to cells and was used as a negative control for cell viability. Following the 24-h exposure period, the MT Cell viability substrate was added to the cultures. Only viable cells can reduce the substrate and, thereby, generate a luminescent signal. Any decrease in luminescence was considered an indication of cell death or toxicity.
# (§2) C2C12 cells (100 µL) were seeded in a 96-well plate at 5 × 10^5 cells/mL and incubated overnight in complete growth media to achieve 80% confluency followed by serum-starvation for 16–18 h.
# (§3) Next, reagents from the RealTime-Glo™ MT Cell Viability Assay Kit (Promega, Madison, WI, USA) were diluted in SS medium and used according to manufacturer’s protocol. Cellular luminescence was measured using the FilterMax F5 Multi-mode Microplate Reader (Molecular Devices, San Jose, CA, USA). Data from three independent experiments with individual experiments carried out in triplicate was determined and reported as a percentage of control.
# [2] = system: C2C12 cells; experiment: RealTime-Glo MT cell viability assay; type: cell-based, mouse; settings: for Increase in cell viability over control / Decrease in cell viability compared with control: 24 h; for IC50: non-linear regression, read-out: IC50 (concentration at which cell viability is reduced by 50%)
# Method: as §1, §2, §3
# [3] = system: p-Smad nuclear translocation; experiment: Immunofluorescent labeling of p-Smad nuclear translocation; type: cell-based, mouse; settings: 1 µM, 30 min
# Method: Serum-starved C2C12 cells grown on poly-D-lysine (PDL)-coated coverslips were stimulated with BMP2 (50 ng/mL), SY-LB-35 (1 µM) or SY-LB-57 (1 µM) for 30 min.
# In a 24-well plate, 12 mm glass coverslips were coated for 1 h at RT with 500 µL PDL (0.1 mg/mL/ 0.1 M Boric acid), washed 4 times with cell culture-grade distilled water and sterilized under UV light for 30 min. C2C12 cells (500 µL) were seeded onto the PDL-coated coverslips at a density of 1 × 10^5 cells/mL, grown to 80% confluency and starved in SS medium for 2 h. Next, the cells were treated with 50 ng/mL BMP2 or 1 µM SY-LB-35 or SY-LB-57 for 15 min (for p-Akt labelling) or 30 min (for p-Smad labelling). Cells were then fixed using ice-cold 4% PFA/PBS for 10 min at RT. Next, the coverslips were washed with ice-cold 1X PBS, transferred to a humidified chamber and incubated (100 µL/coverslip) in Permeabilization solution (0.1% Triton X-100/PBS) for 15 min, then Blocking Buffer (10% heat inactivated goat serum/ 0.3% Triton X-100/PBS) for 30 min. Anti-p-Smad antibodies in Antibody Dilution Buffer (1% BSA/0.1% Tween 20/PBS) were added for 1 h and the coverslips were washed 4 times with 1X PBS. The Cy3-conjugated goat anti-rabbit IgG secondary antibodies (Jackson Immuno Research Labs, West Grove, PA, USA) in Antibody Dilution Buffer were added for 1 h followed by 4 washes with 1X PBS and once with dH2O. […]
# [4] = system: p-Akt (Akt phosphorylation); experiment: Western blot of p-Akt normalized to total Akt; type: cell-based; settings: Mus musculus, 0.25 h, 15 min, read-out: p-Akt level, percent of control
# Method: (§4) To ascertain whether these novel indolyl-benzimidazole compounds can also activate non-canonical BMP-related pathways, stimulation of the PI3K/Akt pathway was assessed by first monitoring changes in the level of p-Akt in response to SY-LB-35 and SY-LB-57.
# (§5) C2C12 cells (3 mL) were seeded into 35 mm dishes at 7.5 × 10^4 cells/mL in complete growth medium, incubated to reach 80% confluence and serum-starved for 16–18 h. […] Thereafter, the cultures were washed with ice-cold 1X TBS for 2 min. Lysis Buffer (Cell Signaling Technology, Danvers, MA, USA) supplemented with 1 mM PMSF (phenylmethylsulphonyl fluoride) was added to the cultures and whole cell lysates were prepared.
# (§6) Laemmli sample buffer (4X) was added to the whole cell lysates (20 µg) to a final concentration of 1X and heated at 100 °C for 5 min. The samples were immediately cooled on ice for 5 min and centrifuged at 9500 rpm for 2 min at RT. The samples and the Precision Plus Protein Standard (5 µL; Bio-Rad, Hercules, CA, USA) were loaded on 12% SDS polyacrylamide gels. Protein was separated using the Bio-Rad Mini Protean II Gel Electrophoresis System at 135 V. Meanwhile, 0.2 µm nitrocellulose membranes were pre-incubated in cold 1X Transfer Buffer (10 mM Tris/2.5 mM glycine/20% methanol) for at least 30 min. Next, the separated proteins were transferred at 100 V onto the pre-equilibrated nitrocellulose membranes for 1 h in Transfer Buffer, followed by blocking in 5% BSA/0.1% Tween 20/1X TBS for 30 min. The membranes were incubated overnight at 4 °C with the desired primary rabbit monoclonal antibody (p-Smad1/5(S463/465)/9(S465/467), Smad1 (D5907) XP®, p-Akt (Ser473) (D9E) XP®, or Akt (pan) (C67E7), p-SAPK/JNK (Thr183/Tyr185), SAPK/JNK, β-actin (Cell Signaling Technologies, Danvers, MA, USA)) or rabbit polyclonal antibody (phospho-PI3 Kinase p85 (Tyr458)/p55 (Tyr199) antibody (Cell Signaling Technologies, Danvers, MA, USA), p-p38 MAPK, p38 MAPK, p-ERK1, ERK1/2) (Abclonal, Woburn, MA, USA)) in Antibody Dilution Buffer (1% BSA/0.1% Tween 20/1X TBS) and then washed with 1X TBST (0.1% Tween 20/1X TBS) three times for 15 min. HRP-conjugated Goat Anti-Rabbit IgG secondary antibody (Santa Cruz Biotechnology, Inc., Dallas, TX, USA) in Antibody Dilution Buffer was added to the membranes for 1 h at RT followed by three 15-min washes with 1X TBST. Finally, the blots were developed using SuperSignal ™ West Femto HRP Substrate solutions (Thermo Scientific, Rockford, IL, USA) and analysed using the Omega Lum™ G Imaging System (San Francisco, CA, USA). Quantification of chemiluminescent signals was carried out using ImageJ (Image Processing and Analysis in Java 1.8.0_112).
# [5] = system: p-Akt cytoplasmic localization; experiment: Immunofluorescent labeling of p-Akt; type: cell-based, mouse; settings: 1 µM, 15 min
# Method: as §4
# [6] = system: p-PI3K (PI3K phosphorylation); experiment: Western blot of p-PI3K normalized to β-actin; type: cell-based, mouse; settings: 15 min; for activity at 0.01 µM / activity at 0.1 µM / activity at 1 µM / activity at 10 µM: Mus musculus, 0.25 h, read-out: p-PI3K level, percent of control; for Increase in level of PI3K phosphorylation: all concentrations tested 0.01–10 µM
# Method: To directly assess the activation of the PI3K enzyme, Western blot analysis was carried out on C2C12 cell whole cell lysates after a 15-min stimulation with 0.01–10 µM SY-LB-35 or SY-LB-57.
# as §5, §6
# [7] = system: p-ERK; experiment: Western blot of p-ERK; type: cell-based, mouse; settings: 0.01–10 µM, 15 min
# Method: Whole cell lysates were prepared from the treated cultures for Western blot analysis.
# as §5
# Laemmli sample buffer (4X) was added to the whole cell lysates (20 µg) to a final concentration of 1X and heated at 100 °C for 5 min. The samples were immediately cooled on ice for 5 min and centrifuged at 9500 rpm for 2 min at RT. The samples and the Precision Plus Protein Standard (5 µL; Bio-Rad, Hercules, CA, USA) were loaded on 12% SDS polyacrylamide gels. […] Finally, the blots were developed using SuperSignal ™ West Femto HRP Substrate solutions (Thermo Scientific, Rockford, IL, USA) and analysed using the Omega Lum™ G Imaging System (San Francisco, CA, USA). Quantification of chemiluminescent signals was carried out using ImageJ (Image Processing and Analysis in Java 1.8.0_112).
Compound,"viability at 24 h, 0.01 µM [1] [%]","viability at 24 h, 0.1 µM [1] [%]","viability at 24 h, 1 µM [1] [%]","viability at 24 h, 10 µM [1] [%]","viability at 24 h, 100 µM [1] [%]","viability at 24 h, 1 mM [1] [%]","IC50 ([2]; C2C12, 24 h) [µM]","IC50 ([2]; Mus musculus, C2C12, 24 h) [µM]",p-Smad nuclear translocation [3],activity at 0.01 µM [4] [%],activity at 10 µM [4] [%],p-Akt immunofluorescent labeling [5],activity at 0.01 µM [6] [%],activity at 0.1 µM [6] [%],activity at 1 µM [6] [%],activity at 10 µM [6] [%],Increase in level of PI3K phosphorylation [6] [% increase],p-ERK level [7],further results
Oc1ccc2[nH]c(-c3nc4ccccc4[nH]3)cc2c1 [SY-LB-35],241,244,218,137,69,13,401,401,induced the translocation of p-Smad into the nucleus,945,766,"robust, punctate, cytoplasmic p-Akt labeling",431,434,492,484,> 300,stimulated increases,Increase in cell viability over control ([2]; 0.01 µM): 150 % over control; Increase in cell viability over control ([2]; 0.1 µM): 150 % over control; Increase in cell viability over control ([2]; 1 µM): 120 % over control; Decrease in cell viability compared with control ([2]; 100 µM): 30 % decrease; Decrease in cell viability compared with control ([2]; 1 mM): 80 % decrease; activity at 0.1 µM ([4]; 0.1 µM): 826%; activity at 1 µM ([4]; 1 µM): 887%
COc1ccc2[nH]c(-c3nc4ccccc4[nH]3)cc2c1 [SY-LB-57],390,394,301,251,151,20,808,808,induced the translocation of p-Smad into the nucleus,827,995,"robust, punctate, cytoplasmic p-Akt labeling",443,404,471,451,> 300,stimulated increases,"Non-toxic / safe concentrations ([2]; C2C12, 24 h): ≤ 10 µM"
